pIC50: −log10 of the molar value. Counter-ions that a name gives are not always drawn.
Tests used:
[1] = molecular target: T1, human PI3Kδ enzyme (Homo sapiens, UniProt O00329); test: PI3Kδ enzyme inhibitory activity (PI3-Kinase HTRF Assay kit); assay type: biochemical; details: human PI3Kδ 10 ng/well, ATP 30 μM, PIP2 10 μM, room temperature 30 minutes
T1 construct: purchased Millipore Corporation 14-604
Method: 1. PI3Kδ Enzyme Inhibitory Activity
For the experiment, a PI3-Kinase HTRF Assay kit (Millipore Corporation, Catalogue No. 33-016) and a human PI3Kδ enzyme (Millipore Corporation, Catalogue No. 14-604) were used. The measurement method was in accordance with the appended instructions. The overview thereof is as follows.
PI3Kδ (10 ng/well), phosphatidylinositol-4,5-bisphosphate (10 μM), ATP (30 μM), and the test compound were mixed in a 384-well plate (total 20 μL), and incubated at room temperature for 30 minutes. EDTA and biotinylated phosphatidylinositol-3,4,5-triphosphate were added thereto to stop the reaction. Thereafter, a Europium labeled anti-GST antibody, a GST bond GRP1 PH domain, and streptavidin-APC were added thereto, followed by incubation overnight. An HTRF ratio was measured using an HTRF plate reader.

[2] = molecular target: T2, Human PI3Kα (Homo sapiens, UniProt P42336); test: PI3Kα enzyme inhibitory activity (Kinase-Glo Plus luminescence); assay type: biochemical; details: human PI3Kα 12 ng/well, phosphatidylinositol 0.2 μg/well, 37° C. 3 hours
T2 construct: purchased Millipore Corporation 14-602
Method: 2. PI3Kα Enzyme Inhibitory Activity
Human PI3Kα (12 ng/well, Millipore Corporation, Catalogue No. 14-602), phosphatidylinositol (0.2 μg/well), and the test compound were mixed in a 384-well plate in a reaction buffer (50 mM Hepes, 10 mM NaCl, 10 mM MgCl2, 2 mM EGTA, 2 mM DTT, pH 7.3) (total 10 μl), and incubated at 37° C. for 3 hours. After the reaction, 10 μL of a Kinase-Glo Plus reagent (Promega, Catalogue No. V3772) was added thereto, and a luminescence was measured with a luminometer.

[3] = tested on: IL-2 production; test: Rat in vivo IL-2 production inhibition test (Concanavalin A induced); details: 10 mg/kg oral, 2 hours before Concanavalin A 15 mg/kg iv; blood IL-2 at 3 hours, vs vehicle control; male LEW rats
Method: 3. Rat In Vivo IL-2 Production Inhibition Test
For the experiment, male LEW/CrlCrlj rats (Charles River Laboratories, Japan, Inc.) (6-week old, body weight 130 to 180 g) were used. The test compound was suspended in a 0.5% methyl cellulose solution and orally administered at 5 mL/kg. IL-2 production was induced by tail vein injection of Concanavalin A (Funakoshi Corporation, Catalogue No. L-1000) at a dose of 15 mg/kg.
The test was carried out according to the protocol shown below. At 2 hours or 16 hours before administration of Concanavalin A, the test compound was orally administered to rats. At 3 hours after administration of Concanavalin A, blood was collected. The IL-2 concentration in blood was quantified using an ELISA kit (R&D Systems, Inc., Catalogue No. DY502E). An inhibition rate was calculated from the amount of IL-2 produced in a group administered with the test compound with respect to the amount of the IL-2 produced in a control group administered with a vehicle.

[4] = tested on: Spleen cells prepared from male LEW/CrlCrlj rats (B cell proliferation); test: Rat B cell proliferation inhibition test (anti-rat IgM, [3H]thymidine); assay type: cell-based; details: anti-rat IgM 3 μg/well, 48 hours culture
Method: 4. Rat B Cell Proliferation Inhibition Test
Spleen cells (1.0×10^5 cells/well) prepared from male LEW/CrlCrlj rats (Charles River Laboratories, Japan, Inc.), mouse F(ab′)2 fragment anti-rat IgM (3 μg/well, SouthernBiotech Associates, Inc., Catalogue No. 3082-14) and the test compound dissolved in DMSO (final DMSO concentration 0.1%) were mixed in a 96-well plate using a 10% FCS-containing RPMI-1640 culture medium (total 200 μL). They were cultured in a CO2 incubator for 48 hours and [^3H]thymidine (925 GBq/mmol, Moravek Biochemicals, Inc., Catalogue No. MT6038) was added thereto at 0.037 MBq/well at 4 hours before completion of culture. Cells were harvested in a GF/C glass filter using a cell harvester, and a radioactivity on the filter was measured using a liquid scintillation counter.

T1 sequence (O00329 whole entry): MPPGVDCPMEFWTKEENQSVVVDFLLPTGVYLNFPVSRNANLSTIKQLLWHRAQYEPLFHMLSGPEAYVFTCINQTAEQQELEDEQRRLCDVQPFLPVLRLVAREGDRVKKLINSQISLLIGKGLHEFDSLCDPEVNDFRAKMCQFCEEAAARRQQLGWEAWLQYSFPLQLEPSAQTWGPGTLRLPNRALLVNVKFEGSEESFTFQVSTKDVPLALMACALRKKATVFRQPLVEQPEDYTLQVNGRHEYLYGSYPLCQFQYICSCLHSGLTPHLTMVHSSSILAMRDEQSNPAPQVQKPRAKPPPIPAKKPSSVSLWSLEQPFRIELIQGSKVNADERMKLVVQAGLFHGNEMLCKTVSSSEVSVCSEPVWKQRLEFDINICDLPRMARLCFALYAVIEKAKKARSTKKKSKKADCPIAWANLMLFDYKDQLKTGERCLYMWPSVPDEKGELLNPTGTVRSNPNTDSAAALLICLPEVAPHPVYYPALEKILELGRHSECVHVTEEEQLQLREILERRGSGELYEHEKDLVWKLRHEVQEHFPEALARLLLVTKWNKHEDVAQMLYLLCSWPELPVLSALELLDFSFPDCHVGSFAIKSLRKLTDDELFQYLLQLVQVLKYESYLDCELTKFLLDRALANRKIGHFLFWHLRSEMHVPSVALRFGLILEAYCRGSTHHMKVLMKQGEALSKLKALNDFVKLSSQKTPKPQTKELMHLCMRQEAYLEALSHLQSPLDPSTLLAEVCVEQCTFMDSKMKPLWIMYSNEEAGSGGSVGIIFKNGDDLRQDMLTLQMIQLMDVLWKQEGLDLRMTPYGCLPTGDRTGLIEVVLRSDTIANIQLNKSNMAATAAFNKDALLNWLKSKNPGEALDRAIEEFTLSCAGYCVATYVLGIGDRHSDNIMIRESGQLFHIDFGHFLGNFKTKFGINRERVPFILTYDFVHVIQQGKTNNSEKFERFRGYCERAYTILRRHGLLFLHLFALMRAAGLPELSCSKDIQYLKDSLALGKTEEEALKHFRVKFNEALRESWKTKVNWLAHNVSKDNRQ
T1 sequence (P27986 whole entry partner): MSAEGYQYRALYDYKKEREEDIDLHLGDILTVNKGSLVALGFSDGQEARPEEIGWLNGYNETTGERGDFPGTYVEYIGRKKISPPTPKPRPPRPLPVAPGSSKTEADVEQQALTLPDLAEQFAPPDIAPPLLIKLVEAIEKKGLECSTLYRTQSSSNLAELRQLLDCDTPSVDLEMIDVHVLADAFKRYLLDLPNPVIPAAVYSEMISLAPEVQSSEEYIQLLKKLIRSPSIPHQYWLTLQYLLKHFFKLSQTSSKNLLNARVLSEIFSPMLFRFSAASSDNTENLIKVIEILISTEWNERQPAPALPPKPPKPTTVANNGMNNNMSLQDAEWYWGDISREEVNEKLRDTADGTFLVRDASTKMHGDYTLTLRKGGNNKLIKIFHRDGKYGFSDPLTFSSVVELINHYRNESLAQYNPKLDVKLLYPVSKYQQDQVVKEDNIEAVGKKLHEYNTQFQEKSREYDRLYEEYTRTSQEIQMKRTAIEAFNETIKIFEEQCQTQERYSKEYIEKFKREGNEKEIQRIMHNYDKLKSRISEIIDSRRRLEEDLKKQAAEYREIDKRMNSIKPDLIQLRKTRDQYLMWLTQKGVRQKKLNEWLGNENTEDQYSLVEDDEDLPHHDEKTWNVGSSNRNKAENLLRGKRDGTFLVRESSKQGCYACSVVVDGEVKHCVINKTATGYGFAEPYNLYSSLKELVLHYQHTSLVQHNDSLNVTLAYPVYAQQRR
T2 sequence (P42336 whole entry): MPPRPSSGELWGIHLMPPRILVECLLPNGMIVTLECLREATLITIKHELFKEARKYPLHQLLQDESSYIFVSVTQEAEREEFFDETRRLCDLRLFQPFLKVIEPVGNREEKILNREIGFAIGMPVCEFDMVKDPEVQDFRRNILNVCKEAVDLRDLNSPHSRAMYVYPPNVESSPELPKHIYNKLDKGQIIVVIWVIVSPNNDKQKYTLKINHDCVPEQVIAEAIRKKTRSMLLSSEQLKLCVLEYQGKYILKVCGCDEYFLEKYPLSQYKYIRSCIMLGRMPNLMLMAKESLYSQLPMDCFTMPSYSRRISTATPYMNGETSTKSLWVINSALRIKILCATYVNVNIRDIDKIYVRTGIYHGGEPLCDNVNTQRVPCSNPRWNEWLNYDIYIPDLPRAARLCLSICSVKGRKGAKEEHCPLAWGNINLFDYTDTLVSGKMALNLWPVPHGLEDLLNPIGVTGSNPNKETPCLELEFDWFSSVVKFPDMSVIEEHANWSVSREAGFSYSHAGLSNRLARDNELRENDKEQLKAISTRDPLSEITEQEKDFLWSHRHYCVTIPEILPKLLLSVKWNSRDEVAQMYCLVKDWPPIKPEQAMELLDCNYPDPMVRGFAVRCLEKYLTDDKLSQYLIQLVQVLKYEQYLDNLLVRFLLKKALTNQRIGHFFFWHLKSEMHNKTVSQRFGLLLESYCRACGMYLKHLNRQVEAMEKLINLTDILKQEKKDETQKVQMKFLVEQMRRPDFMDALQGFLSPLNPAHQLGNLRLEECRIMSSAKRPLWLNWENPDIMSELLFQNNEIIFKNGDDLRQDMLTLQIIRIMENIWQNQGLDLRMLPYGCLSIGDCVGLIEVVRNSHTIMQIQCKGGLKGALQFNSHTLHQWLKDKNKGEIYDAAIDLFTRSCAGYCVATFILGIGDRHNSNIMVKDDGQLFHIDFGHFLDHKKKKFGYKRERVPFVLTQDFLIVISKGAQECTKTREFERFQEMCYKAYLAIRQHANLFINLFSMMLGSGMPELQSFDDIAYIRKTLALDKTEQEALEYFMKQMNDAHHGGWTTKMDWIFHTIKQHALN
T2 sequence (P27986 whole entry partner): as the sequence (P27986 whole entry partner) above

pIC50 [1]	pIC50 [2]	SMILES	inhibitory activity (IL-2 production inhibition rate) [3]	IC50 [4]
8.10	4.89	FC(F)c1nc2ccccc2n1-c1cc(N2CCOCC2)nc(NCC2CCN([C@H]3CC[C@H](F)CC3)CC2)n1 [Example 43-1, 4-[2-(difluoromethyl)-1H-benzimidazol-1-yl]-N-{[1-(trans-4-fluorocyclohexyl)piperidin-4-yl]methyl}-6-(morpholin-4-yl)pyrimidin-2-amine dihydrochloride]	73%	2.1 nM
7.51	6.14	CN1CCC(CNc2nc(N3CCOCC3)nc(-n3c(C(F)F)nc4ccccc43)n2)CC1 [Example A4]	58%	–
8.24	< 5.52	FC(F)c1nc2ccccc2n1-c1cc(N2CCOCC2)nc(NCC2CCN(C3CCOCC3)CC2)n1 [Example 10]	77%	2.9 nM

Further lines, the molecule ahead of its results:

SMILES	pIC50 [1]	pIC50 [2]	inhibitory activity (IL-2 production inhibition rate) [3]	IC50 [4]
OCC1CCC(N2CCC(CNc3nc(N4CCOCC4)cc(-n4c(C(F)F)nc5ccccc54)n3)CC2)CC1 (stereo not drawn) [Example 29]	7.35	< 5.52	51%	–
CS(=O)(=O)N1CCC(N2CCC(CNc3nc(N4CCOCC4)cc(-n4c(C(F)F)nc5ccccc54)n3)CC2)CC1 [Example 34]	7.85	< 5.52	72%	–
C[C@@H]1COCCN1c1cc(-n2c(C(F)F)nc3ccccc32)nc(NCC2CCN(C3CCOCC3)CC2)n1 [Example 37]	7.70	5.72	81%	1.52 nM
CC(=O)N1CCC(N2CCC(CNc3nc(N4CCOCC4)cc(-n4c(C(F)F)nc5ccccc54)n3)CC2)CC1 [Example 33]	7.96	< 5.52	75%	–
O=C(CNC1CCOCC1)N[C@H]1CC[C@H](Oc2cc(-n3c(C(F)F)nc4ccccc43)nc(N3CCOCC3)n2)CC1 [Example 136]	8.40	< 5.00	–	1.7 nM
COC(=O)N[C@H]1CCN([C@H]2CC[C@H](Nc3nc(N4CCOCC4)cc(-n4c(C(F)F)nc5ccccc54)n3)CC2)C1=O [Example 248, methyl{(3S)-1-[trans-4-({4-[2-(difluoromethyl)-1H-benzimidazol-1-yl]-6-(morpholin-4-yl)pyrimidin-2-yl}amino)cyclohexyl]-2-oxopyrrolidin-3-yl}carbamate]	7.47	6.14	–	1.4 nM

Reference: US8912180B2, “Heterocyclic compound” (Astellas Pharma Inc., priority 2010, dated 2014)
